Experimental data from PMC7815396, “Hypoglycemic Effect of Calea urticifolia (Mill.) DC” (Evidence-based Complementary and Alternative Medicine : eCAM, 2021).

Experiments:
[1] = molecular target: T1, alpha-glucosidases from Saccharomyces cerevisiae; assay: p-nitrophenol release at […] nm; format: biochemical; details: 2 mM p-nitrophenyl-alpha-D-glucopyranoside; 0.1 M phosphate pH 6.8
T1 construct: gene MAL12; commercial yeast enzyme (Sigma G5003), native

[2] = molecular target: T2, alpha-glucosidases from rat intestine; assay: p-nitrophenol release at […] nm; format: biochemical; details: 2 mM p-nitrophenyl-alpha-D-glucopyranoside; 0.1 M phosphate pH 6.8; crude intestinal extract
T2 construct: gene Si; crude rat intestinal extract (Sigma I1630); enzymes not separated

C[C@H]1O[C@H](O[C@H]2[C@H](O)[C@@H](O)[C@@H](O[C@H]3[C@H](O)[C@@H](O)C(O)O[C@@H]3CO)O[C@@H]2CO)[C@H](O)[C@@H](O)[C@@H]1N[C@H]1C=C(CO)[C@@H](O)[C@H](O)[C@H]1O (some centres unmarked) [Acarbose]
S. cerevisiae / α-Glucosidase enzymes / IC50 [1]: 231.9 µg/mL | Rat intestine / α-Glucosidase enzymes / IC50 [2]: 18.6 µg/mL
